The values below come from patent US11224565B2, “N-acyldipeptide derivatives and their uses” (NeoStrata Company, Inc., priority 2011, dated 2022).

SMILES strings stand for the structures. Peptide text beside a SMILES is read from it.

What all share (format): in vivo, human
The test system of data set [1] is arthritis of both knees with edema and pain. In words: Sublingual administration in arthritis of knees. The following applies: 1 mg sublingually, kept under the tongue 15 minutes; after a few hours. The procedure: A subject had severe arthritis of both knees with edema and pain for many years. The conventional therapy had provided only temporary relief of knee pain and edema. The subject took N—Ac-L-Pro-Gly-NH2 (1 mg) sublingually and kept the dipeptide under the tongue for 15 minutes before swallowing.

Data set [2] relates to Nerve disorders. In words: Summary of test results in volunteer subjects: nerve disorders. The following applies: efficacy grade. A digest of the protocol:
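Volunteers applied N-acyldipeptide derivatives dissolved in water/ethanol/propylene glycol (40:40:20), ethanol/propylene glycol (80:20), or water/propylene glycol (80:20) mixed into cream, once or twice daily for several weeks or until lesions cleared. Vehicle control applied twice daily; application also over arthritic joints or painful muscles.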

For data set [3], the system named is Aging related changes of skin, nail and hair. In words: Summary of test results in volunteer subjects: aging related changes. Particulars: efficacy grade.
The subject of data set [4] is Disturbed keratinization. In words: Summary of test results in volunteer subjects: disturbed keratinization. The following applies: efficacy grade. The method in brief:
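Volunteers applied N-acyldipeptide derivatives dissolved in water/ethanol/propylene glycol 40:40:20, ethanol/propylene glycol 80:20, or water/propylene glycol 80:20 mixed into oil-in-water cream, on involved skin once or twice daily for several weeks or until clearing. Vehicle applied twice daily as control; disturbed keratinization lesions assessed clinically.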

Data set [5] has as its system Deranged immune disorders and inflammation. In words: Summary of test results in volunteer subjects: deranged immune disorders and inflammation. The following applies: efficacy grade. The method in brief: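 Volunteers applied N-acyldipeptide derivatives topically once or twice daily for several weeks or until lesions cleared. Compounds were dissolved in water/ethanol/propylene glycol (40:40:20) or ethanol/propylene glycol (80:20), or in water/propylene glycol (80:20) mixed into an oil-in-water cream. Vehicle control applied twice daily.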

The nature of data set [6]: Systemic administration under the tongue, tolerability. Particulars: 1 mg powder under the tongue, twice daily for three days, person. The procedure: The subject took 1 mg N—Ac-L-Tyr-L-Tyr-OH powder under the tongue until it was dissolved completely. The same dose was taken twice daily for the next three days. […] Such systemic administration of the bioactive dipeptide derivative of the present invention is believed to have the potential of treating diseases, symptoms or syndromes associated with immune, tumors, cancers, nervous, vascular, musculoskeletal, cutaneous system, or other tissues and systems.

The subject of data set [7] is forearm skin. In words: Skin thickness of forearm by micrometer calipers after topical application. The following applies: for increase in skin thickness of treated left forearm: 1% (w/v) in WEP442 topically twice daily, vehicle forearm no change. The protocol: In one of the studies related to skin changes associated with aging, skin thickness was measured by micrometer calipers as follows. The skin was grasped with a 2×6 cm metal hinge; the internal faces of which were coated with emery cloth to prevent slippage, and manually squeezed to threshold subject discomfort. Combined thickness of two whole-skin layers including thickness of the two hinge leaves was measured with micrometer calipers. Thickness of the two hinge leaves was subtracted to determine the actual thickness of two whole-skin layers. Triplicate measurements on treated sites were done and an average number was used for calculation of the skin thickness. In other studies, test sites of skin 17 mm in diameter were used, the circular sites were marked with permanent ink. Intervening control sites were also 17 mm in diameter. Thickness of skin of all sites was measured directly by means of an electronic digital caliper. In this instance the jaws of the caliper were opened to 17 mm, applied with pressure to the skin sites and then closed to firm tightness. Thickness of skin was then read off the screen of the calipers. Measurements of all sites were made in triplicates.

In data set [8] the test system is inflammation, dermatitis, or eczema lesions. In words: Topical application to chronic inflammation, dermatitis, eczema or allergic skin lesions, clinical evaluation. Particulars: 0.4% (w/v) in WEP442 pH 3.7 twice daily, inflammatory dermatitis on both arms. The source says:
In another embodiment, the volunteer subject topically applied the test compositions containing N-acyldipeptide derivatives of the present invention on involved skin or lesions once or twice daily for several weeks or until the involved lesions completely cleared and clinically changed to normal skin. As a control study, the subject also topically applied a vehicle control composition on the involved skin or lesions twice daily for the same period.

Turning to `CC(=O)N1CCC[C@H]1C(=O)NCC(N)=O` [N-Ac-L-Pro-Gly-NH2] (Ac-Pro-Gly-NH2), the “edema and pain of arthritic knees” value in data set [1] is “diminished substantially”. Also, the ND in data set [2] is 4+ (4+: 95-100% Efficacy). Besides, in data set [3], the AG was 2+ (2+: 50% Efficacy). The DK in data set [4] is 2+ (2+: 50% Efficacy). Moreover, the DI in data set [5] was 3+ (3+: 75% Efficacy).

For `CC(=O)N[C@@H](Cc1ccc(O)cc1)C(=O)N[C@@H](Cc1ccc(O)cc1)C(=O)O` [N-Ac-L-Tyr-L-Tyr-OH] (Ac-Tyr-Tyr-OH), the “irritation or side reactions” value in data set [6] was “did not provoke any irritation or side reactions”. Moreover, the “increase in skin thickness of treated left forearm” value in data set [7] (after 2 weeks) came to 16%; in data set [7] (after 4 weeks), 17%; in data set [7] (after one week) it was 16%. Also, the “appearance of treated left forearm at end of treatment” value in data set [7] (1-3% (w/v) in WEP442 topically twice daily for 1-6 weeks as in the example, vehicle forearm still loose, thin and wrinkled) was “more firm, smooth, plump, and less wrinkled when lifted”. For the same molecule, the “itch after topical application” value in data set [8] was “stopped within a few minutes”. In addition, the “improvement as judged by clinical evaluation” value in data set [8] (end of one week) was found to be 95%. Besides, the ND in data set [2] is listed as 4+ (4+: 95-100% Efficacy). Moreover, the AG in data set [3] is 4+ (4+: 95-100% Efficacy). Besides, the DK in data set [4] was 3+ (3+: 75% Efficacy). The DI in data set [5] is reported as 3+ (3+: 75% Efficacy).
